According to US9371342B2, “Isoprene oligomer, polyisoprene, processes for producing these materials, rubber composition, and pneumatic tire” (priority 2010, dated 2016):

What was measured:
[1] = biological target: T1, variant enzyme F95A of undecaprenyl diphosphate synthase (Micrococcus luteus, UniProt O82827, F95A); experiment: Relative activity of variant enzyme F95A on initiating substrates; format: biochemical, Micrococcus luteus B-P 26; conditions: index, activity of wild-type enzyme on same initiating substrate as 100; 12.5 μM initiating substrate, 1 hour, 37° C.
T1 construct: made in house; host or cells: E. coli; site-directed mutagenesis of pET22b/MLU-UPS
Method: (§1) Reaction was performed under conditions shown below using each of the initiating substrates prepared in Production Examples 1 to 11 or farnesyl diphosphate. The activity of each variant enzyme on each initiating substrate was indicated by index with the activity of the wild-type enzyme (Micrococcus luteus B-P 26-derived undecaprenyl diphosphate synthase) as 100.
(§2) After the reaction, liquid scintillation counting and TLC quantification were performed to measure the activity of each enzyme.

[2] = biological target: T2, variant enzyme F95W of undecaprenyl diphosphate synthase (Micrococcus luteus, UniProt O82827, F95W); experiment: Relative activity of variant enzyme F95W on initiating substrates; format: biochemical, Micrococcus luteus B-P 26; conditions: index, activity of wild-type enzyme on same initiating substrate as 100; 12.5 μM initiating substrate, 1 hour, 37° C.
T2 construct: made in house; host or cells: E. coli; site-directed mutagenesis of pET22b/MLU-UPS
Method: as §1, §2

[3] = biological target: T3, Sulfolobus acidocaldarius-derived geranylgeranyl diphosphate synthase (Sulfolobus acidocaldarius, UniProt P39464); experiment: Relative activity of geranylgeranyl diphosphate synthase on initiating substrates; format: biochemical; conditions: 12.5 μM initiating substrate, pH 5.8, 1 hour, 55° C.
T3 construct: made in house; host or cells: E. coli BL21 (DE3)
Method: Likewise, reaction was performed under conditions shown below using Sulfolobus acidocaldarius-derived geranylgeranyl diphosphate synthase and each of the initiating substrates 1 to 4, the compound represented by the formula (B), the compound represented by the formula (C), the compound represented by the formula (G), the compound represented by the formula (K), the compound represented by the formula (F), the compound represented by the formula (I), the compound represented by the formula (Q), farnesyl diphosphate (FPP), and geranyl diphosphate (GPP). The results were indicated in Tables 12 and 13 by the relative activity of the enzyme on the initiating substrates 1 to 4, the compound represented by the formula (B), the compound represented by the formula (C), the compound represented by the formula (G), the compound represented by the formula (K), the compound represented by the formula (F), the compound represented by the formula (I), and the compound represented by the formula (QO) with the activity of the enzyme on farnesyl diphosphate or geranyl diphosphate as 100.
(§3) After the reaction, liquid scintillation counting and TLC quantification were performed to measure the activity of the enzyme on each initiating substrate.

[4] = biological target: T4, variant enzyme L91G of undecaprenyl diphosphate synthase (Micrococcus luteus, UniProt O82827, L91G); experiment: Relative activity of variant enzyme L91G on initiating substrates; format: biochemical, Micrococcus luteus B-P 26; conditions: index, activity of wild-type enzyme on same initiating substrate as 100; 12.5 μM initiating substrate, 1 hour, 37° C.
T4 construct: made in house; host or cells: E. coli; site-directed mutagenesis of pET22b/MLU-UPS
Method: as §1, §2

[5] = biological target: T5, variant enzyme L91K of undecaprenyl diphosphate synthase (Micrococcus luteus, UniProt O82827, L91K); experiment: Relative activity of variant enzyme L91K on initiating substrates; format: biochemical, Micrococcus luteus B-P 26; conditions: index, activity of wild-type enzyme on same initiating substrate as 100; 12.5 μM initiating substrate, 1 hour, 37° C.
T5 construct: made in house; host or cells: E. coli; site-directed mutagenesis of pET22b/MLU-UPS
Method: as §1, §2

[6] = biological target: T6, variant enzyme N77A of undecaprenyl diphosphate synthase (Micrococcus luteus, UniProt O82827, N77A); experiment: Relative activity of variant enzyme N77A on initiating substrates; format: biochemical, Micrococcus luteus B-P 26; conditions: index, activity of wild-type enzyme on same initiating substrate as 100; 12.5 μM initiating substrate, 1 hour, 37° C.
T6 construct: made in house; host or cells: E. coli; site-directed mutagenesis of pET22b/MLU-UPS
Method: as §1, §2

[7] = biological target: T7, variant enzyme L91D of undecaprenyl diphosphate synthase (Micrococcus luteus, UniProt O82827, L91D); experiment: Relative activity of variant enzyme L91D on initiating substrates; format: biochemical, Micrococcus luteus B-P 26; conditions: index, activity of wild-type enzyme on same initiating substrate as 100; 12.5 μM initiating substrate, 1 hour, 37° C.
T7 construct: made in house; host or cells: E. coli; site-directed mutagenesis of pET22b/MLU-UPS
Method: as §1, §2

[8] = biological target: T8, Micrococcus luteus B-P 26-derived undecaprenyl diphosphate synthase (wild-type enzyme) (Micrococcus luteus, UniProt O82827); experiment: Relative activity of wild-type undecaprenyl diphosphate synthase on initiating substrates; format: biochemical; conditions: activity of the enzyme on farnesyl diphosphate as 100; 12.5 μM initiating substrate, pH 7.5, 1 hour, 37° C.
T8 construct: made in house; host or cells: E. coli; plasmid pET22b/MLU-UPS
Method: as §1, §2
Next, reaction was performed under conditions shown below using Micrococcus luteus B-P 26-derived undecaprenyl diphosphate synthase as an enzyme and each of the initiating substrates 1 to 4, the compound represented by the formula (B), the compound represented by the formula (C), the compound represented by the formula (G), the compound represented by the formula (K), and farnesyl diphosphate (FPP). The results were indicated in Table 10 by the relative activity of the enzyme on the initiating substrates 1 to 4, the compound represented by the formula (B), the compound represented by the formula (C), the compound represented by the formula (G), and the compound represented by the formula (K) with the activity of the enzyme on farnesyl diphosphate as 100.
as §3

[9] = biological target: T9, variant enzyme N31A of undecaprenyl diphosphate synthase (Micrococcus luteus, UniProt O82827, N31A); experiment: Relative activity of variant enzyme N31A on initiating substrates; format: biochemical, Micrococcus luteus B-P 26; conditions: index, activity of wild-type enzyme on same initiating substrate as 100; 12.5 μM initiating substrate, 1 hour, 37° C.
T9 construct: made in house; host or cells: E. coli; site-directed mutagenesis of pET22b/MLU-UPS
Method: as §1, §2

[10] = biological target: T10, variant enzyme N31Q of undecaprenyl diphosphate synthase (Micrococcus luteus, UniProt O82827, N31Q); experiment: Relative activity of variant enzyme N31Q on initiating substrates; format: biochemical, Micrococcus luteus B-P 26; conditions: index, activity of wild-type enzyme on same initiating substrate as 100; 12.5 μM initiating substrate, 1 hour, 37° C.
T10 construct: made in house; host or cells: E. coli; site-directed mutagenesis of pET22b/MLU-UPS
Method: as §1, §2

[11] = biological target: T11, variant enzyme L91N of undecaprenyl diphosphate synthase (Micrococcus luteus, UniProt O82827, L91N); experiment: Relative activity of variant enzyme L91N on initiating substrates; format: biochemical, Micrococcus luteus B-P 26; conditions: index, activity of wild-type enzyme on same initiating substrate as 100; 12.5 μM initiating substrate, 1 hour, 37° C.
T11 construct: made in house; host or cells: E. coli; site-directed mutagenesis of pET22b/MLU-UPS
Method: as §1, §2

[12] = biological target: T12, variant enzyme N77Q of undecaprenyl diphosphate synthase (Micrococcus luteus, UniProt O82827, N77Q); experiment: Relative activity of variant enzyme N77Q on initiating substrates; format: biochemical, Micrococcus luteus B-P 26; conditions: index, activity of wild-type enzyme on same initiating substrate as 100; 12.5 μM initiating substrate, 1 hour, 37° C.
T12 construct: made in house; host or cells: E. coli; site-directed mutagenesis of pET22b/MLU-UPS
Method: as §1, §2

[13] = biological target: T13, Bacillus stearothermophilus-derived farnesyl diphosphate synthase (Geobacillus stearothermophilus, UniProt Q08291); experiment: Relative activity of farnesyl diphosphate synthase on initiating substrates; format: biochemical; conditions: activity of the enzyme on geranyl diphosphate as 100; 12.5 μM initiating substrate, pH 8.5, 1 hour, 55° C.
T13 construct: made in house; host or cells: E. coli BL21 (DE3)
Method: Reaction was performed under conditions shown below using the obtained Bacillus stearothermophilus-derived farnesyl diphosphate synthase and each of the initiating substrates 1 to 4, the compound represented by the formula (F), the compound represented by the formula (I), the compound represented by the formula (QO), and geranyl diphosphate (GPP) whose structure is shown below. The results were indicated in Table 11 by the relative activity of the enzyme on the initiating substrates 1 to 4, the compound represented by the formula (F), the compound represented by the formula (I), and the compound represented by the formula (Q) with the activity of the enzyme on geranyl diphosphate as 100.
as §3

[14] = activity of the enzyme on farnesyl diphosphate as 100
[15] = activity of the enzyme on geranyl diphosphate as 100

T11 sequence (O82827 whole entry L91N): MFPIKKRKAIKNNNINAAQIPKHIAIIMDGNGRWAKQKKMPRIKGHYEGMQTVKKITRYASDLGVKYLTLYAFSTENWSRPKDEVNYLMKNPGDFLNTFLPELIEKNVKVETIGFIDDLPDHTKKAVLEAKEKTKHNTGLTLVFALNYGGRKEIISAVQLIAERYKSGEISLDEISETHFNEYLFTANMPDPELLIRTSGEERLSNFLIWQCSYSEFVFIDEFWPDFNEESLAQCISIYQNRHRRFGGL
T13 sequence (Q08291 whole entry): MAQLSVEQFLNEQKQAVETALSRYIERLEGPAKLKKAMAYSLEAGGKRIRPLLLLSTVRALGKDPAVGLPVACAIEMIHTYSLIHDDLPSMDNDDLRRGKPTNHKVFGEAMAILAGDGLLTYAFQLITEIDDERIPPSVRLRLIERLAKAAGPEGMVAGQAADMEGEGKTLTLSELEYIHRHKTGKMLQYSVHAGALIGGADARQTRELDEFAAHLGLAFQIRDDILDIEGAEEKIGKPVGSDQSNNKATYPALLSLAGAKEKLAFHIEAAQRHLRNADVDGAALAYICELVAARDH
T1 sequence (O82827 whole entry F95A): as the sequence (O82827 whole entry L91N) above, with N91L, F95A counted along it
T7 sequence (O82827 whole entry L91D): as the sequence (O82827 whole entry L91N) above, with N91D counted along it
T9 sequence (O82827 whole entry N31A): as the sequence (O82827 whole entry L91N) above, with N31A, N91L counted along it
T5 sequence (O82827 whole entry L91K): as the sequence (O82827 whole entry L91N) above, with N91K counted along it
T10 sequence (O82827 whole entry N31Q): as the sequence (O82827 whole entry L91N) above, with N31Q, N91L counted along it
T8 sequence (O82827 whole entry): as the sequence (O82827 whole entry L91N) above, with N91L counted along it
T4 sequence (O82827 whole entry L91G): as the sequence (O82827 whole entry L91N) above, with N91G counted along it
T6 sequence (O82827 whole entry N77A): as the sequence (O82827 whole entry L91N) above, with N77A, N91L counted along it
T12 sequence (O82827 whole entry N77Q): as the sequence (O82827 whole entry L91N) above, with N77Q, N91L counted along it
T2 sequence (O82827 whole entry F95W): as the sequence (O82827 whole entry L91N) above, with N91L, F95W counted along it
T3 sequence (P39464 whole entry): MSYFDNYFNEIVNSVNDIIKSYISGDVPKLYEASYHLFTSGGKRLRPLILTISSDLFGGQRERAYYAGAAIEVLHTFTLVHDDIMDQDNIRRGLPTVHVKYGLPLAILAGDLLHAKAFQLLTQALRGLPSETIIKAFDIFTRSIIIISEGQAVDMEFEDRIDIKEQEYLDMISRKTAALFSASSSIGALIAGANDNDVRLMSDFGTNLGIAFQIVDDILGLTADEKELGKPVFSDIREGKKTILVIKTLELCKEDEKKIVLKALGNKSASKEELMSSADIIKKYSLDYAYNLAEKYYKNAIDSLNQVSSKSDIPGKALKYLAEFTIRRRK

| Compound | Relative activity [1] | Relative activity [2] | Relative activity (%) [3, 14] [%] | Relative activity [4] | Relative activity [5] | Relative activity [6] | Relative activity [7] | Relative activity (%) [8] [%] | Relative activity [9] | Relative activity [10] | Relative activity [11] | Relative activity [12] | Relative activity (%) [3, 15] [%] | Relative activity (%) [13] [%] |
| --- | --- | --- | --- | --- | --- | --- | --- | --- | --- | --- | --- | --- | --- | --- |
| CCCCC(OC)/C(C)=C/CC/C(C)=C/COP(=O)(O)OP(=O)(O)O (stereo not drawn) [Compound of formula (B), 8-methoxy-3,7-dimethyl-dodeca-(2E,6E)-dienyl diphosphate] | 128 | 140 | 70.6 | 149 | 156 | 319 | 231 | 68.4 | 116 | – | – | – | – | – |
| CCCSC/C(C)=C/CC/C(C)=C/COP(=O)(O)OP(=O)(O)O [Compound of formula (M), 8-n-propylthio-3,7-dimethyl-octa-(2E,6E)-dienyl diphosphate] | – | – | – | – | 112 | 127 | 123 | – | 149 | 101 | 139 | – | – | – |
| CCCCC(O)/C(C)=C/CC/C(C)=C/COP(=O)(O)OP(=O)(O)O (stereo not drawn) [Compound of formula (C), 8-hydroxy-3,7-dimethyl-dodeca-(2E,6E)-dienyl diphosphate] | – | – | 37.3 | 146 | 130 | 234 | 155 | 74.8 | 111 | – | 108 | – | – | – |
| 7-acetyl-7-aza-3-methyl-dodeca-(2E)-dienyl diphosphate [Compound of formula (K)] | 136 | 148 | 38.6 | – | 112 | – | – | 40.6 | – | – | – | – | – | – |
| CC[C@H](O)CC/C(C)=C/CC/C(C)=C/COP(=O)(O)OP(=O)(O)O [Compound of formula (D), (10S)-hydroxy-3,7-dimethyl-dodeca-(2E,6E)-dienyl diphosphate] | – | 120 | – | 134 | 101 | 208 | 125 | – | 179 | 104 | 103 | 124 | – | – |
| COCOC/C(C)=C/CC/C(C)=C/COP(=O)(O)OP(=O)(O)O [Compound of formula (H), 8-methoxymethoxy-3,7-dimethyl-octa-(2E,6E)-dienyl diphosphate] | – | – | – | – | – | 162 | – | – | 152 | 110 | – | – | – | – |
| C/C(=C\COP(=O)(O)OP(=O)(O)O)CC/C=C(\C)CO[Si](C)(C)C(C)(C)C [Compound of formula (P), 8-[(tert-butyldimethylsilyl)oxy]-3,7-dimethyl-octa-(2E,6E)-dienyl diphosphate] | 104 | 130 | – | 104 | – | – | 112 | – | – | – | – | – | – | – |
| CCC(CC/C(C)=C/CC/C(C)=C/COP(=O)(O)OP(=O)(O)O)C(C)=O [Compound of formula (S), 10-acetyl-3,7-dimethyl-dodeca-(2E,6E)-dienyl diphosphate] | 163 | 130 | – | 130 | 147 | – | 227 | – | 116 | – | – | – | – | – |
| CCC(O)CC/C(C)=C/CC/C(C)=C/COP(=O)(O)OP(=O)(O)O [Compound of formula (R), 10-hydroxy-3,7-dimethyl-dodeca-(2E,6E)-dienyl diphosphate] | 140 | 121 | – | 110 | 165 | 254 | 230 | – | 200 | 146 | 137 | 156 | – | – |
| C/C(=C\COP(=O)(O)OP(=O)(O)O)CC/C=C(\C)COCc1ccccc1 [Compound of formula (N), 8-benzyloxy-3,7-dimethyl-octa-(2E,6E)-dienyl diphosphate] | 132 | 147 | – | – | – | 112 | – | – | – | – | – | 133 | – | – |
| CC[C@@H](O)CC/C(C)=C/CC/C(C)=C/COP(=O)(O)OP(=O)(O)O [Compound of formula (E), (10R)-hydroxy-3,7-dimethyl-dodeca-(2E,6E)-dienyl diphosphate] | 120 | 114 | – | 170 | 163 | 396 | 320 | – | 222 | 210 | 271 | 194 | – | – |
| CC(C)=CCC/C=C/COP(=O)(O)OP(=O)(O)O [Initiating substrate 2, 7-methyl-octa-2E,6E-dienyl diphosphate] | – | – | 2.5 | – | – | – | – | 0.6 | – | – | – | – | 0.4 | 3.2 |
| CC(C)=CCC/C(C)=C/CC/C=C/COP(=O)(O)OP(=O)(O)O [Initiating substrate 3, 7,11-dimethyl-dodeca-2E,6E,10E-trienyl diphosphate] | – | – | 3.9 | – | – | – | – | 1.2 | – | – | – | – | 0.6 | 2.1 |
| CC(C)=CCC/C(C)=C/CC/C(C)=C/CC/C=C/COP(=O)(O)OP(=O)(O)O [Initiating substrate 4, 7,11,15-trimethyl-hexadeca-2E,6E,10E,14E-tetraenyl diphosphate] | – | – | 1.4 | – | – | – | – | 5.9 | – | – | – | – | 0.8 | 0.7 |
| C/C=C/COP(=O)(O)OP(=O)(O)O [Initiating substrate 1, 2E-butenyl diphosphate] | – | – | 2.3 | – | – | – | – | 0.3 | – | – | – | – | 0.4 | 1.4 |
